Assays:
[1] = storage stability (sealed storage, degradation rate); format: physicochemical
Experimental: (§1) The storage stability, light stability and solubility in common solvents of the tri(di)fluoroethanolation reagents 1a, 2a, A2, A3 and A4 prepared in Embodiment 1, Embodiment 23, Embodiment 30, Embodiment 31 and Embodiment 32 of the present disclosure were tested, and the results are shown in Table 1 below.

[2] = solubility in common solvents of the tri(di)fluoroethanolation reagents; format: physicochemical; settings: for solubility acetonitrile: solvent acetonitrile; for solubility dichloromethane (DCM): solvent dichloromethane (DCM); for solubility ethyl acetate (EA): solvent ethyl acetate (EA); for solubility n-hexane: solvent n-hexane
Experimental: as §1

[3] = light stability (continuous white light irradiation, degradation rate); format: physicochemical
Experimental: as §1

storage stability, sealed storage at 5° C. for two weeks (degradation rate, mol %) [1] | storage stability, sealed storage at 30° C. for two weeks (degradation rate, mol %) [1] | solubility acetonitrile [2] | solubility dichloromethane (DCM) [2] | solubility ethyl acetate (EA) [2] | solubility n-hexane [2] | light stability, continuous white light irradiation at 25° C. for 2 days (degradation rate, mol %) [3] | storage stability, sealed storage at 5° C. for two weeks (degradation rate, mol %) ([1]; listed as A2) | storage stability, sealed storage at 30° C. for two weeks (degradation rate, mol %) ([1]; listed as A2) | melting point | SMILES
<1% mol % | 3.2% mol % | dissolved | dissolved | dissolved | well | <1% mol % |  |  |  | C[Si](c1ccccc1)(c1ccccc1)C(O)C(F)(F)F (racemic) [Embodiment A4]
<1% mol % | 5% mol % | dissolved | dissolved | dissolved | dissolved | <1% mol % |  |  |  | C[Si](C)(c1ccccc1)C(O)C(F)(F)F (racemic) [a1]
<1% mol % | 4% mol % | dissolved | dissolved | dissolved | dissolved | <1% mol % | 2% mol % | 14% mol % |  | C[Si](C)(c1ccccc1)C(O)C(F)F (racemic) [a2]
 |  |  |  |  |  |  |  |  | 116 to 118 °C | CC1(CC(O)C(F)(F)F)C(=O)N(c2ccccc2)c2ccccc21 (stereo not shown) [Embodiment 21, 3-methyl-1-phenyl-3-(3,3,3-trifluoro-2-hydroxypropyl)indol-2-one]

SMILES | storage stability, sealed storage at 5° C. for two weeks (degradation rate, mol %) [1] | storage stability, sealed storage at 30° C. for two weeks (degradation rate, mol %) [1] | solubility acetonitrile [2] | solubility dichloromethane (DCM) [2] | solubility ethyl acetate (EA) [2] | solubility n-hexane [2] | light stability, continuous white light irradiation at 25° C. for 2 days (degradation rate, mol %) [3] | storage stability, sealed storage at 5° C. for two weeks (degradation rate, mol %) ([1]; listed as A2) | storage stability, sealed storage at 30° C. for two weeks (degradation rate, mol %) ([1]; listed as A2) | melting point
OC(C(F)(F)F)[Si](c1ccccc1)(c1ccccc1)c1ccccc1 (stereo not shown) [Embodiment A3] | <1% mol % | <1% mol % | dissolved | dissolved | dissolved | slightly | <1% mol % |  |  | 

Reference: patent US20210388007A1, “COMPOUND AND PREPARATION METHOD AND APPLICATION THEREOF” (WUHAN UNIVERSITY, priority 2020, published 2021)
